Results published in US10053431B2, “Tetrahydro-benzodiazepinones” (priority 2013, dated 2018).
Counter-ions that a name gives are not always drawn. Like-named read-outs stand apart in the source and are kept apart here.

Assays:
BIR2 domain of XIAP = BIR2 domain of XIAP (Homo sapiens (Human), UniProt P98170, C202A/C213G); test: TR-FRET assay for BIR2 (inhibition of binding of XIAP BIR2 domain to SMAC-derived Peptide A)
BIR3 domain of XIAP = BIR3 domain of XIAP (Homo sapiens (Human), UniProt P98170); test: TR-FRET assay for BIR3 (inhibition of binding of XIAP BIR3 domain to SMAC-derived Peptide A); conditions: 6x His-tagged BIR3 domain (aa 241-356 of XIAP) 10 nM, Peptide A 20 nM, TR-FRET
BIR3 domain of XIAP, sequence (P98170 241-356 with tags or gaps limits assumed): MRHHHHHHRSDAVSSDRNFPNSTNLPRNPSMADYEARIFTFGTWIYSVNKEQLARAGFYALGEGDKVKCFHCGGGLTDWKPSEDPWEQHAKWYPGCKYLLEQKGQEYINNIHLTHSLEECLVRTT

[1] = 6x His-tagged BIR2 domain (aa 124-240 of XIAP) 10 nM, Peptide A 20 nM, TR-FRET, read-out: IC50 BIR2

BIR2 domain of XIAP, sequence (P98170 124-240 with tags or gaps C202A/C213G limits assumed): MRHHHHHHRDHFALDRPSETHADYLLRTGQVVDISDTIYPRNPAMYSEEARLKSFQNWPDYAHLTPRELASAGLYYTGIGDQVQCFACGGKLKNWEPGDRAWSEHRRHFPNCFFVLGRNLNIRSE

Row | Structure (SMILES) | IC50 (BIR2 domain of XIAP; [1]) | IC50 (BIR3 domain of XIAP) | IC50 (BIR2 domain of XIAP; IC50 BIR2)
1 | CN[C@@H](C)C(=O)N[C@H]1CN(C(C)=O)c2cc(C(F)(F)F)ccc2N(Cc2nn(-c3ccccc3C#N)c3ccccc23)C1=O [Example 177, (S)-N-((S)-5-acetyl-1-((1-(2-cyanophenyl)-1H-indazol-3-yl)methyl)-2-oxo-7-(trifluoromethyl)-2,3,4,5-tetrahydro-1H-benzo[b][1,4]diazepin-3-yl)-2-(methylamino)propanamide hydrochloride] | 35.3 nM | > 54800 nM | –
2 | CN[C@@H](C)C(=O)N[C@H]1CN(C(=O)c2ccc(C(C)=O)cc2)c2ccccc2N(CCc2cccc3ccccc23)C1=O [Example 40, (S)—N—((S)-5-(4-acetylbenzoyl)-1-(2-(naphthalen-1-yl)ethyl)-2-oxo-2,3,4,5-tetrahydro-1H-benzo[b][1,4]diazepin-3-yl)-2-(methylamino)propanamide] | 173 nM | 7420 nM | –
3 | CN[C@@H](C)C(=O)N[C@H]1CN(C(=O)c2ccc(C(=O)O)cc2)c2ccccc2N(Cc2c(C)ccc3ccccc23)C1=O [Example 97, 4-[(S)-3-((S)-2-Methylamino-propionylamino)-5-(2-methyl-naphthalen-1-ylmethyl)-4-oxo-2,3,4,5-tetrahydro-benzo[b][1,4]diazepine-1-carbonyl]-benzoic acid hydrochloride] | 100 nM | > 54800 nM | –
4 | CN[C@@H](C)C(=O)N[C@H]1CN(C(=O)CCN)c2ccccc2N(Cc2c(OC)ccc3cc(C(=O)OC)ccc23)C1=O [Example 61, 5-[(S)-5-(3-Amino-propionyl)-3-((S)-2-methylamino-propionylamino)-2-oxo-2,3,4,5-tetrahydro-benzo[b][1,4]diazepin-1-ylmethyl]-6-methoxy-naphthalene-2-carboxylic acid methyl ester hydrochloride] | 72 nM | > 54800 nM | –
5 | CC[C@H](N)C(=O)NC1C(=O)N(Cc2c(OC)ccc3c(Br)cccc23)c2ccccc2N(c2ccccc2)C1=O (stereo partly drawn) [Example 137, (2S)-2-amino-N-(1-((5-bromo-2-methoxynaphthalen-1-yl)methyl)-2,4-dioxo-5-phenyl-2,3,4,5-tetrahydro-1H-benzo[b][1,4]diazepin-3-yl)butanamide] | – | > 54800 nM | 29.8 nM
6 | CN[C@@H](C)C(=O)N[C@H]1CN(C(=O)c2ccc(N)cc2)c2cc(Cl)ccc2N(Cc2c(OC)ccc3c(Br)cccc23)C1=O [Example 123, (S)-N-((S)-5-(4-aminobenzoyl)-1-((5-bromo-2-methoxynaphthalen-1-yl)methyl)-7-chloro-2-oxo-2,3,4,5-tetrahydro-1H-benzo[b][1,4]diazepin-3-yl)-2-(methylamino)propanamide hydrochloride] | 6.71 nM | 18700 nM | –
7 | CN[C@@H](C)C(=O)N[C@H]1CN(C(=O)CS(C)(=O)=O)c2ccccc2N(Cc2c(OC(F)F)ccc3ccccc23)C1=O [Example 83, (S)—N—((S)-1-((2-(Difluoromethoxy)naphthalen-1-yl)methyl)-5-(2-(methylsulfonyl)acetyl)-2-oxo-2,3,4,5-tetrahydro-1H-benzo[b][1,4]diazepin-3-yl)-2-(methylamino)propanamide hydrochloride] | 121 nM | > 54800 nM | –
8 | CC[C@H](NC)C(=O)N[C@H]1CN(C(=O)c2ccc(C(C)=O)cc2)c2ccccc2N(Cc2c(OC)ccc3cc(Br)ccc23)C1=O [Example 79, (S)—N—((S)-5-(4-Acetylbenzoyl)-1-((6-bromo-2-methoxynaphthalen-1-yl)methyl)-2-oxo-2,3,4,5-tetrahydro-1H-benzo[b][1,4]diazepin-3-yl)-2-(methylamino)butanamide hydrochloride] | 1 nM | 3480 nM | –
9 | CN[C@@H](C)C(=O)N[C@H]1CN(C(=O)CCOC)c2cc(C#N)ccc2N(Cc2nn(-c3ccccc3C#N)c3ccccc23)C1=O [Example 173, (S)-N-((S)-7-cyano-1-((1-(2-cyanophenyl)-1H-indazol-3-yl)methyl)-5-(3-methoxypropanoyl)-2-oxo-2,3,4,5-tetrahydro-1H-benzo[b][1,4]diazepin-3-yl)-2-(methylamino)propanamide hydrochloride] | 37.6 nM | > 54800 nM | –
